This is an account of results in DBAASP.

Some test systems named below: Escherichia coli JM109; Staphylococcus aureus; Candida albicans; Escherichia coli O157.
Assay in all cases: ≥ marks a high value that may be exact or a test limit, other limits are often not marked, values filed in µg/mL are converted to µM
The subject of experiment [1] is Staphylococcus aureus ATCC 6538P.
The test system of experiment [2] is Escherichia coli PCM 2057.
Experiment [3] has as its system Staphylococcus aureus PCM 1944.
Experiment [4] concerns Bacillus subtilis ATCC 6633.
For experiment [5], the system named is Escherichia coli NIHJ JC-2.
For experiment [6], the system named is Staphylococcus aureus FDA 209P JC-1.
Experiment [7] relates to Pseudomonas aeruginosa PAK.
Experiment [8] deals with Streptococcus gordonii Challis DL1.
The subject of experiment [9] is Streptococcus mitis ATCC 903.
Experiment [10] has as its system Streptococcus mutans UA159.
The subject of experiment [11] is Streptococcus sanguinis NY101.
In experiment [12] the test system is Bacillus cereus ATCC 11778.
The test system of experiment [13] is Enterococcus faecalis ATCC 29212.
Experiment [14] has as its system Escherichia coli ATCC 25922.
Experiment [15] relates to Escherichia coli ATCC 35218.
Experiment [16] has as its system Micrococcus luteus ATCC 9341.
In experiment [17] the test system is Pseudomonas aeruginosa ATCC 9027.
Experiment [18] deals with Salmonella enterica subsp. arizonae ATCC 13314.
The test system of experiment [19] is Staphylococcus epidermidis ATCC 12228.
Experiment [20] has as its system Streptococcus pyogenes ATCC 19615.

SMILES strings stand for the structures. Values after ≈ are worked out from the molar mass of the structure shown.

Take `CC[C@H](C)[C@H](NC(=O)[C@H](C)NC(=O)[C@H](CC(C)C)NC(=O)[C@H](CS)NC(=O)[C@H](Cc1cnc[nH]1)NC(=O)[C@H](C)N)C(=O)NCC(=O)N[C@@H](CCCN=C(N)N)C(=O)N[C@@H](CCCN=C(N)N)C(N)=O` [AHCLAIGRR]: the results for the MIC (in the experiment on Escherichia coli JM109; in experiment [1]; against Staphylococcus aureus) were 16.1 µM, 6.02 µM and over 64.2 µM, respectively.
On to `CC[C@H](C)[C@H](NC(=O)[C@H](CC(N)=O)NC(=O)[C@@H](NC(=O)[C@H](C)N)C(C)C)C(=O)N1CCC[C@H]1C(=O)N[C@@H](Cc1ccccc1)C(=O)N[C@@H](CCCCN)C(=O)N[C@H](C(=O)N[C@@H](Cc1cnc[nH]1)C(=O)N[C@@H](Cc1ccccc1)C(=O)N[C@@H](CCCN=C(N)N)C(=O)O)C(C)C` [AVNIPFKVHFR], for which the MIC in experiment [2] and in experiment [3] was at least 753 µM throughout.
Take `CC[C@H](C)[C@H](NC(=O)CNC(=O)[C@H](C)NC(=O)[C@H](CC(C)C)NC(=O)[C@@H](NC(=O)[C@@H]1CCCN1C(=O)[C@H](CC(C)C)NC(=O)[C@@H](N)Cc1ccccc1)C(C)C)C(=O)N[C@@H](C)C(=O)N[C@@H](C)C(=O)N[C@@H](CCCCN)C(=O)N[C@H](C(=O)N[C@H](C(=O)N1CCC[C@H]1C(=O)N[C@@H](C)C(=O)N[C@@H](CC(C)C)C(=O)N[C@@H](Cc1ccccc1)C(=O)N[C@H]1CSSC[C@@H](C(=O)O)NC(=O)[C@H](CCCCN)NC(=O)[C@H](CCCCN)NC(=O)[C@H]([C@@H](C)O)NC(=O)[C@H]([C@@H](C)CC)NC(=O)[C@H](CCCCN)NC1=O)C(C)C)C(C)C` [FLPVLAGIAAKVVPALFCKITKKC]: the MIC in experiment [4] is 0.79 µM (≈ 2 µg/mL); against Candida albicans, over 51.4 µM; in experiment [5] it was 13.4 µM (≈ 34 µg/mL); in [6], 3.16 µM (≈ 7.99 µg/mL).
In the case of `CC[C@H](C)[C@H](N)C(=O)N[C@@H](CCCCN)C(=O)N[C@@H](CCC(N)=O)C(=O)N[C@@H](CC(C)C)C(=O)N[C@@H](CC(C)C)C(=O)N[C@@H](Cc1cnc[nH]1)C(=O)N[C@@H](Cc1ccccc1)C(=O)N[C@@H](Cc1ccccc1)C(=O)N[C@@H](CCC(N)=O)C(=O)N[C@@H](CCCN=C(N)N)C(=O)N[C@@H](Cc1ccccc1)C(=O)NCC(=O)NCC(=O)NCC(=O)N[C@@H](Cc1ccccc1)C(=O)N[C@H](C(=O)N[C@@H](CCCCN)C(=O)N[C@@H](Cc1cnc[nH]1)C(=O)N[C@@H](Cc1ccccc1)C(=O)N[C@H](C(=O)N[C@@H](Cc1cnc[nH]1)C(=O)N[C@@H](CCCN=C(N)N)C(=O)N[C@@H](Cc1ccccc1)C(N)=O)[C@@H](C)CC)[C@@H](C)CC` [IKQLLHFFQRFGGGFIKHFIHRF], the MIC was at least 43.5 µM in experiment [7]; 21.7 µM (≈ 62.5 µg/mL) against Staphylococcus aureus; 11.1 µM (≈ 32 µg/mL) in experiment [8]; 5.57 µM (≈ 16 µg/mL) in experiment [9]; 2.78 µM (≈ 8 µg/mL) in [10]; 11.1 µM (≈ 32 µg/mL) in experiment [11].
On to `CC(C)C[C@H](NC(=O)[C@H](CC(C)C)NC(=O)[C@H](CCC(N)=O)NC(=O)[C@H](Cc1ccc(O)cc1)NC(=O)[C@H](CCCN=C(N)N)NC(=O)CNC(=O)[C@H](C)NC(=O)[C@H](C)NC(=O)[C@@H](NC(=O)[C@H](CO)NC(=O)[C@H](Cc1ccc(O)cc1)NC(=O)[C@@H](NC(=O)[C@H](CCCCN)NC(=O)[C@H](Cc1ccc(O)cc1)NC(=O)[C@H](CCCN=C(N)N)NC(=O)[C@@H]1CCCN1C(=O)[C@H](CC(C)C)NC(=O)[C@H](Cc1ccc(O)cc1)NC(=O)[C@@H](NC(=O)[C@@H](N)CCCCN)C(C)C)C(C)C)[C@@H](C)O)C(N)=O` [KVYLPRYKVYSTAAGRYQLL], for which the MIC in [12] is at least 150 µM; in experiment [13], over 150 µM; in experiment [14], over 150 µM; in experiment [15], at least 150 µM; against Escherichia coli O157 it was at least 150 µM; in [16] it was at least 150 µM. Further, the MIC in experiment [17] is over 150 µM; in experiment [18], at least 150 µM; in [19] it was over 150 µM; in experiment [20], at least 150 µM.
